Laboratory results published in US7592347B2, “Piperazine derivates and their use for the treatment of neurological and psychiatric diseases” (Glaxo Group Limited, priority 2003, dated 2009).
Structures can show the parent of a compound that is named as a salt.

Molecular target: T1, histamine H3 receptor (Homo sapiens, UniProt Q9Y5N1)
T1 construct: expressed in transfected cells; host or cells: CHO K1 cells carrying pSwitch, transfected with pGeneH3 and induced with mifepristone; clone 3H3; membranes
T1 sequence (Q9Y5N1 whole entry): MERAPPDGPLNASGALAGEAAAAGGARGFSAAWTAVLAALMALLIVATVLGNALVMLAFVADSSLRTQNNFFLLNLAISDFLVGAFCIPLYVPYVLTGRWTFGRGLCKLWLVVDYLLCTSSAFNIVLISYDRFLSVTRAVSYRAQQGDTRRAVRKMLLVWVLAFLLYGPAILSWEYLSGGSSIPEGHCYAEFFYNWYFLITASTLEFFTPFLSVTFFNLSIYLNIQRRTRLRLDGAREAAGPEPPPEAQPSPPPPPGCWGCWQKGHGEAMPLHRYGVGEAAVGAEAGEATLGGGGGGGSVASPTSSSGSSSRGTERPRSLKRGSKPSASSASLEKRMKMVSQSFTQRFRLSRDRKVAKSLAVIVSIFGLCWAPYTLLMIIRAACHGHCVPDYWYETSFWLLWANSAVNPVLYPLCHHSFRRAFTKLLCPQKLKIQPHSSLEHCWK
Assay: Histamine H3 functional antagonist assay ([35S]GTPγS SPA, membranes of CHO K1 cells expressing human H3)
Format: biochemical
Conditions: functional antagonism of histamine (0.3 μM) stimulated [35S]GTPγS binding, membranes of CHO K1 cells with human histamine H3
Experimental: A membrane preparation containing histamine H3 receptors may be prepared in accordance with the following procedures:
Ligated DNA was transformed into competent DH5α E. coli host bacterial cells and plated onto Luria Broth (LB) agar containing Zeocin™ (an antibiotic which allows the selection of cells expressing the sh ble gene which is present on pGene and pSwitch) at 50 μg ml^−1. Colonies containing the re-ligated plasmid were identified by restriction analysis. DNA for transfection into mammalian cells was prepared from 250 ml cultures of the host bacterium containing the pGeneH3 plasmid and isolated using a DNA preparation kit (Qiagen Midi-Prep) as per manufacturers guidelines (Qiagen).
CHO K1 cells previously transfected with the pSwitch regulatory plasmid (InVitrogen) were seeded at 2×10e6 cells per T75 flask in Complete Medium, containing Hams F12 (GIBCOBRL, Life Technologies) medium supplemented with 10% v/v dialysed foetal bovine serum, L-glutamine, and hygromycin (100 μg ml^−1), 24 hours prior to use. Plasmid DNA was transfected into the cells using Lipofectamine plus according to the manufacturers guidelines (InVitrogen). 48 hours post transfection cells were placed into complete medium supplemented with 500 μg ml^−1 Zeocin™.
10-14 days post selection 10 nM Mifepristone (InVitrogen), was added to the culture medium to induce the expression of the receptor. […] Approximately 1×10e7 cells were examined for receptor expression by staining with a rabbit polyclonal antibody, 4a, raised against the N-terminal domain of the histamine H3 receptor, incubated on ice for 60 minutes, followed by two washes in sorting medium. […] Following two further washes with Sorting Medium, cells were filtered through a 50 μm Filcon™ (BD Biosciences) and then analysed on a FACS Vantage SE Flow Cytometer fitted with an Automatic Cell Deposition Unit. […] Positively stained cells were sorted as single cells into 96-well plates, containing Complete Medium containing 500 μg ml^−1 Zeocin™ and allowed to expand before reanalysis for receptor expression via antibody and ligand binding studies.
All steps of the protocol are carried out at 4° C. and with pre-cooled reagents. The cell pellet is resuspended in 10 volumes of buffer A2 containing 50 mM N-2-hydroxyethylpiperazine-N′-2-ethanesulfonic acid (HEPES)(pH 7.40) supplemented with 10e−4M leupeptin (acetyl-leucyl-leucyl-arginal; Sigma L2884), 25 μg/ml bacitracin (Sigma B0125), 1 mM ethylenediamine tetra-acetic acid (EDTA), 1 mM phenylmethylsulfonyl fluoride (PMSF) and 2×10e−6M pepstain A (Sigma). The cells are then homogenised by 2×15 second bursts in a 1 litre glass Waring blender, followed by centrifugation at 500 g for 20 minutes. The supernatant is then spun at 48,000 g.for 30 minutes. The pellet is resuspended in 4 volumes of buffer A2 by vortexing for 5 seconds, followed by homogenisation in a Dounce homogeniser (10-15 strokes). At this point the preparation is aliquoted into polypropylene tubes and stored at −70° C. […]
The plate is then incubated on a shaker at room temperature for 30 minutes followed by centrifugation for 5 minutes at 1500 rpm. The plate is read between 3 and 6 hours after completion of centrifuge run in a Wallac Microbeta counter on a 1 minute normalised tritium count protocol. Data is analysed using a 4-parameter logistic equation. Basal activity used as minimum i.e. histamine not added to well.

With `CC(C)N1CCN(C(=O)C2CCN(c3ccc(C#N)cn3)CC2)CC1` [Example E1, 1-Isopropyl-4-[1-(5-cyano-pyridin-2-yl)-piperidine4-carbonyl]-piperazine hydrochloride] the Kb was under 3.16 nM.

For `CC(C)N1CCN(C(=O)C2CCN(c3ccc(C#N)cc3)CC2)CC1` [Example E2, 1-Isopropyl-4-[1-(4-cyanophenyl)-piperidine-4-carbonyl]-piperazine hydrochloride], the Kb was under 1 nM.

Work on `COC(=O)c1cnc(N2CCC(C(=O)N3CCN(C(C)C)CC3)CC2)cc1C(F)(F)F` [Example E4, 1-Isopropyl-4-[1-(5-methoxycarbonyl-4-trifluoromethylpyridin-2-yl)-piperidine-4-carbonyl]-piperazine] yielded a Kb of under 3.16 nM.

Work on `CCOC(=O)c1ccc(N2CCC(C(=O)N3CCN(C(C)C)CC3)CC2)cc1` [Example E8, 1-Isopropyl-4-[1-(4ethoxycarbonylphenyl)-piperidine-4-carbonyl]-piperazine] yielded a Kb of under 3.16 nM.

Work on `N#Cc1ccc(N2CCC(C(=O)N3CCN(C4CCC4)CC3)CC2)cc1` [Example E9, 1-Cyclobutyl-4-[1-(4-cyanophenyl)-piperidine-4-carbonyl]-piperazine] yielded a Kb of under 3.16 nM.

In the case of `N#Cc1ccc(N2CCC(C(=O)N3CCN(C4CCC4)CC3)CC2)cc1F` [Example E10, 1-Cyclobutyl-4-[1-(4-cyano-3-fluorophenyl)-piperidine-4-carbonyl]-piperazine], the Kb was under 3.16 nM.

Work on `N#Cc1cc(F)c(N2CCC(C(=O)N3CCN(C4CCC4)CC3)CC2)c(F)c1` [Example E11, 1-Cyclobutyl4-[1-(4-cyano-2,6-difluorophenyl)-piperidine-4-carbonyl]-piperazine] yielded a Kb of under 3.16 nM.

Molecule `N#Cc1ccc(N2CCC(C(=O)N3CCN(C4CCC4)CC3)CC2)cc1C(F)(F)F` [Example E12, 1-Cyclobutyl-4-[1-(4-cyano-3-trifluoromethylphenyl)-piperidine-4-carbonyl]-piperazine] has a Kb of under 3.16 nM.

`N#Cc1ccc(N2CCC(C(=O)N3CCN(C4CCC4)CC3)CC2)c2ccccc12` [Example E13, 1-Cyclobutyl-4-[1-(4-cyano-naphthalen-1-yl)-piperidine-4-carbonyl]-piperazine] was tested, and the Kb was under 3.16 nM.

Molecule `N#Cc1ccc(N2CCC(C(=O)N3CCN(C4CCC4)CC3)CC2)nc1` [Example E14, 1-Cyclobutyl-4-[1-(5-cyanopyridin-2-yl)-piperidine-4-carbonyl]-piperazine] has a Kb of under 3.16 nM.

`O=C(C1CCN(c2cccc(C(F)(F)F)n2)CC1)N1CCN(C2CCC2)CC1` [Example E15, 1-Cyclobutyl-4-[1-(6-trifluoromethylpyridin-2-yl)-piperidine-4-carbonyl]-piperazine] showed a Kb of under 3.16 nM.

With `O=C(C1CCN(c2ccc(C(F)(F)F)cn2)CC1)N1CCN(C2CCC2)CC1` [Example E16, 1-Cyclobutyl-4-[1-(5-trifluoromethylpyridin-2-yl)-piperidine-4-carbonyl]-piperazine] the Kb was under 3.16 nM.

`O=C(C1CCN(c2ncc(C(F)(F)F)cc2Cl)CC1)N1CCN(C2CCC2)CC1` [Example E17, 1-Cyclobutyl-4-[1-(3-chloro-5-trifluoromethylpyridin-2-yl)-piperidine-4-carbonyl]-piperazine] gave a Kb of under 3.16 nM.

In the case of `CC(C)N1CCN(C(=O)C2CCN(c3ncc(-c4ccc(S(C)(=O)=O)cc4)cn3)CC2)CC1` [Example E25, 1-Isopropyl-4-{1-[5-(4-methylsulfonylphenyl)-pyrimidin-2-yl]-piperidine-4-carbonyl}-piperazine], the Kb was under 3.16 nM.

In the case of `CC(C)N1CCN(C(=O)C2CCN(c3ccc(C(=O)N4CCOCC4)cc3)CC2)CC1` [Example E30, 1-Isopropyl-4-{1-[4-(morpholino-carbonyl)-phenyl]-piperidine-4-carbonyl}-piperazine hydrochloride], the Kb was under 3.16 nM.

In the case of `N#Cc1ccc(N2CCC(C(=O)N3CCN(C4CCCC4)CC3)CC2)cc1` [Example E31, 1-Cyclopentyl-4-[1-(4cyano-phenyl)-piperidine-4-carbonyl]-piperazine hydrochloride], the Kb was under 3.16 nM.

In the case of `C[C@@H]1CN(C(=O)C2CCN(c3ccc(C#N)cc3)CC2)C[C@H](C)N1C1CCC1` [Example E33, (2R,6S)-1-Cyclobutyl-4-[1-(4-cyanophenyl)-piperidine-4-carbonyl]-2,6-dimethylpiperazine hydrochloride], the Kb was under 3.16 nM.

Work on `N#Cc1ccc(N2CCC(C(=O)N3CCCN(C4CCC4)CC3)CC2)cc1` [Example E36, 1-Cyclobutyl-4-[1-(4-cyanophenyl)-piperidine4-carbonyl]-[1,4]-diazepane] yielded a Kb of under 1 nM.

Molecule `N#Cc1ccc(N2CCC(C(=O)N3CCCN(C4CCC4)CC3)CC2)nc1` [Example E37, 1-Cyclobutyl-4-[1-(5-cyanopyridin-2-yl)-piperidine4-carbonyl]-[1,4]-diazepane] has a Kb of under 1 nM.

With `CC(C)N1CCCN(C(=O)C2CCN(c3ccc(C#N)cc3)CC2)CC1` [Example E38, 1-Isopropyl-4-[1-(4-cyanophenyl)-piperidine4-carbonyl]-[1,4]-diazepane] the Kb was under 1 nM.

`CC(C)N1CCCN(C(=O)C2CCN(c3cc(F)c(C#N)cc3F)CC2)CC1` [Example E39, 1-Isopropyl-4-[1-(4-cyano-2,5-difluorophenyl)-piperidine-4-carbonyl]-[1,4]-diazepane] was tested, and the Kb was under 3.16 nM.

Molecule `CC(C)N1CCCN(C(=O)C2CCN(c3ccc(C#N)c(Cl)c3)CC2)CC1` [Example E40, 1-Isopropyl-4-[1-(4-cyano-3-chlorophenyl)-piperidine-4-carbonyl]-[1,4]-diazepane] has a Kb of under 3.16 nM.

For `CC(C)N1CCCN(C(=O)C2CCN(c3ccc(C#N)c(F)c3)CC2)CC1` [Example E41, 1-Isopropyl-4-[1-(4-cyano-3-fluoro-phenyl)-piperidine4-carbonyl]-[1,4]-diazepane], the Kb was under 3.16 nM.

`CC(C)N1CCCN(C(=O)C2CCN(c3c(F)cc(C#N)cc3F)CC2)CC1` [Example E42, 1-Isopropyl-4-[1-(4-cyano-2,6-difluoro-phenyl)-piperidine-4-carbonyl]-[1,4]-diazepane] was tested, and the Kb was under 3.16 nM.

In the case of `CC(C)N1CCCN(C(=O)C2CCN(c3ccc(C#N)cc3F)CC2)CC1` [Example E43, 1-Isopropyl-4-[1-(4-cyano-2-fluoro-phenyl)-piperidine-4-carbonyl]-[1,4]-diazepane], the Kb was under 3.16 nM.

With `CC(C)N1CCCN(C(=O)C2CCN(c3ccc(C#N)c(C(F)(F)F)c3)CC2)CC1` [Example E44, 1-Isopropyl4-[1-(4-cyano-3-trifluoromethyl-phenyl)-piperidine-4-carbonyl]-[1,4]-diazepane] the Kb was under 3.16 nM.

Molecule `CC(C)N1CCCN(C(=O)C2CCN(c3ccc(C(F)(F)F)cc3)CC2)CC1` [Example E45, 1-Isopropyl-4-[1-(4-trifluoromethyl-phenyl)-piperidine-4-carbonyl]-[1,4]-diazepane] has a Kb of under 3.16 nM.

Molecule `CC(C)N1CCCN(C(=O)C2CCN(c3ccc(C#N)c4ccccc34)CC2)CC1` [Example E46, 1-Isopropyl-4-[1-(4-cyano-naphthalen-1-yl)-piperidine-4-carbonyl]-[1,4]-diazepane] has a Kb of under 3.16 nM.

`CC(C)N1CCCN(C(=O)C2CCN(c3ccc(Cl)c(Cl)c3)CC2)CC1` [Example E54, 1-Isopropyl-4-[1-(3,4-dichlorophenyl)-piperidine-4-carbonyl]-[1,4]-diazepane] showed a Kb of under 3.16 nM.

For `CC(C)N1CCCN(C(=O)C2CCN(c3ccc(OC(F)(F)F)cc3)CC2)CC1` [Example E56, 1-Isopropyl-4-[1-(4-trifluoromethoxyphenyl)-piperidine4-carbonyl]-[1,4]-diazepane], the Kb was under 3.16 nM.

`CC(C)N1CCCN(C(=O)C2CCN(c3ccc(OC(F)F)cc3)CC2)CC1` [Example E59, 1-Isopropyl-4-[1-(4-difluoromethoxyphenyl)-piperidine-4-carbonyl]-[1,4]-diazepane] was tested, and the Kb was under 3.16 nM.

With `CC(C)N1CCCN(C(=O)C2CCN(c3ccc(Oc4ccccc4)cc3)CC2)CC1` [Example E61, 1-Isopropyl-4-[1-(4-phenoxyphenyl)-piperidine-4-carbonyl]-[1,4]-diazepane] the Kb was under 3.16 nM.
